Measured values published in patent US20080300178A1, “Method For Treating Huntington's Disease by Inhibiting Dephosphorylation of Huntingtin at S421” (Insitut Curie, priority 2006, published 2008).
Entries after “also recorded” stand apart in the source; their conditions may differ.

Assays:
[1] = test system: BDNF-containing vesicles transport; assay: BDNF-containing vesicle transport in primary cortical neurons expressing FL-htt-75Q (videomicroscopy); format: cell-based, rat; settings: IGF-1 treatment
Protocol: (§1) Videomicroscopy Experiments and Analyses. For videoexperiments rat primary cortical neurons, +/+, and 109Q/109Q cells established from Hdh^Q111 knock-in mouse were prepared, cultured and transfected as previously described (Gauthier et al., 2004; Humbert et al., 2002; Saudou et al., 1998; Trettel et al., 2000). In some cases, primary cultures of cortical neurons are electroporated with the rat neuron Nucleofector® kit according to the supplier's manual (Amaxa, Cologne). Forskolin ([…]; Sigma) and IBMX ([…]; Sigma) were added to the cultures 5 hours after transfection.
(§2) Videomicroscopy experiments were done two or four days after transfection. Cells were co-transfected with BDNF-eGFP and various constructs of htt or the corresponding empty vectors with a DNA ratio of 1:4. Live videomicroscopy was carried out using an imaging system previously detailed (Gauthier et al., 2004). Cells were grown on glass coverslip that was mounted in a Ludin chamber. The microscope and the chamber were kept at 37° C. (33° C. for knock-in cells). Stacks of 10-15 images with a Z-step of 0.3 μm were acquired with a 100× PlanApo N.A. 1.4 oil immersion objective coupled to a piezo device (PI). Images were collected in stream mode using a Cool Snap HQ camera (Ropper Scientific) set at 2×2 binning with an exposure time of 50 to 100 ms (frequency of 2). […]

[2] = test system: BDNF-containing vesicles transport; assay: BDNF-containing vesicle transport in 109Q/109Q cells (videomicroscopy); format: cell-based, mouse; settings: IGF-1 treatment
Protocol: as §1, §2

[3] = test system: Parkinson's disease; settings: cited from earlier work
[4] = target: GST-huntingtin (amino acids 384 to 467 of human huntingtin fused to GST), before phosphorylation (UniProt P42858)
[5] = target: GST-huntingtin (amino acids 384 to 467 of human huntingtin fused to GST), phosphorylated at S421 by Akt (UniProt P42858)
[6] = test system: endogenous huntingtin S421 phosphorylation; assay: Phosphorylation of endogenous huntingtin at S421 in Jurkat T cells (Western blot); format: cell-based, human; settings: ionomycin 2.5 μM
Protocol: (§3) Cell culture, transfection and drug treatments. Primary cultures of striatal neurons were prepared from E17 Sprague Dawley rats and transfected at 4 days in vitro by a modified calcium phosphate technique (Saudou et al., 1998). Mouse neuronal cells derived from wildtype huntingtin mice (neuronal cells, +/+) and from Hdh^Q109 knock-in mice (109Q/109Q) were cultured as previously described (Trettel et al., 2000) and transfected with Lipofectamine 2000 (Invitrogen, Breda, The Netherlands). When cotransfected (FIG. 3A), the ratio 480-17Q/Akt/CaNA-ΔCaM/CaNB was 1:0.5:1:1. Human HEK 293 cells were cultured in DMEM supplemented with 10% bovine calf serum (BCS) and were transfected by the calcium phosphate technique. SHSY-5Y cells and Jurkat T cells were grown in RPMI supplemented with 10% BCS. Jurkat T cells were transferred to tyrodes buffer (137 mM NaCl, 3 mM KCl, 20 mM Hepes, 2 mM MgCl2, 1 mM CaCl2, 5.6 mM glucose, 0.3 mg/ml BSA; 4×10^6 cells/ml) prior addition of FK506 (1 μM) and/or ionomycin (2.5 μM).
(§4) Western blot analysis. After transfection/incubation with drugs, cells were washed with ice cold phosphate-buffered saline prior to scraping and lysis. […] Quantification of the signal was performed by densitometric scanning of the film using ImageJ software.

[7] = test system: endogenous huntingtin S421 phosphorylation; assay: Immunofluorescence of phospho-S421-huntingtin in SHSY-5Y cells transfected with wild-type CaNA/CaNB; format: cell-based, human; settings: 1 μM ionomycin, 15 min
Protocol: Immunofluorescence experiments. SHSY-5Y cells were grown on uncoated glass coverslips, transfected with wild-type CaNA/B for 24 hours and treated for 15 min with 1 μM ionomycin (Sigma) or left untreated. Cells were fixed with 4% paraformaldehyde-PHEM buffer for 20 min (in mM: PIPES, 120; HEPES, 50, EGTA, 20; Mg-acetate 4) and incubated with antiphospho-S421-huntingtin-763 (1:100) and anti-CaNA (1:200; Cat#C1956, Sigma) antibodies. Pictures were captured with a three-dimensional deconvolution imaging system as previously described (Gauthier et al., 2004). Mean fluorescence intensity of the phospho-S421 signal was next quantified using Metamorph software (Universal Imaging Corp, Princeton, N.J., USA). For each pair of cells (transfected/non transfected), signal from the transfected cell was standardized by giving a value of 100 to the non-transfected cell. Only non-mitotic cells of the same approximate size were considered. More than 30 cells in total were analyzed in two independent experiments.

[8] = test system: endogenous huntingtin S421 phosphorylation; assay: Phosphorylation of S421 in primary striatal neurons (Western blot); format: cell-based; settings: rat striatal neurons, 1 μM FK506
Protocol: as §3, §4

Q: With “IGF-1: IGF-1, activator of the IGF-1/Akt pathway” as the molecule, how does the “mean velocity of BDNF-containing vesicles” value [1] read?
A: The value was “statistically significant increase in the velocity of BDNF vesicles; also recorded: significantly increases the mean velocity”.

Q: And the “pausing time of BDNF-containing vesicles” value [1]?
A: Its value is “decreased the pausing time; also recorded: decreases their pausing time”.

Q: And the “pausing time of BDNF-containing vesicles” value [2]?
A: Its value is “decreasing pausing time; also recorded: decreases pausing time”.

Q: And the “velocity of BDNF-containing vesicles” value [2]?
A: Its value is “statistically increasing velocity; also recorded: increases velocity”.

Q: Which “outcome of clinical trials” value [3] does the source give for `CCC(C)(C)C(=O)C(=O)N1CCC[C@H]1C(=O)OCCCc1cccnc1` [GPI-1046] here?
A: The value was “have failed”.

Q: Which “phosphorylation of S421 (in vitro kinase assay, immunoblot)” value [4] does the source give for recombinant Akt here?
A: Its value is “resulting in the phosphorylation of GST-huntingtin at S421”.

Q: Which “dephosphorylation of S421 (immunoblot with the anti-phospho-huntingtin-S421-763 antibody)” value [5] does the source give for “purified calcineurin (native protein isolated from bovine brain)” here?
A: The value was “calcineurin dephosphorylates S421 of huntingtin in vitro in a time and dose-dependent manner”.

Q: With `C[C@H](CCC(=O)O)C[C@H](C)C[C@H](C)C(=O)/C=C(\O)[C@H](C)C[C@H](C)C/C=C/[C@@H](C)[C@@H](O)[C@@H](C)[C@@H](O)C[C@@H]1CC[C@@](C)([C@H]2CC[C@@](C)([C@@H](C)O)O2)O1` [ionomycin] as the molecule, how does the “S421 phosphorylation after ionomycin” value [6] read?
A: Its value is “rapid dephosphorylation of huntingtin on S421”.

Q: What about the “huntingtin S421 phosphorylation (mean fluorescence intensity)” value [7] of the same molecule?
A: Its value is “reduction of huntingtin phosphorylation at S421”.

Q: What about the “huntingtin S421 phosphorylation (mean fluorescence intensity)” value ([7]; listed as Ionomycin) of the same molecule?
A: The value was “decreased huntingtin S421 phosphorylation”.

Q: With `C=CC[C@@H]1/C=C(\C)C[C@H](C)C[C@H](OC)[C@H]2O[C@@](O)(C(=O)C(=O)N3CCCC[C@H]3C(=O)O[C@H](/C(C)=C/[C@@H]3CC[C@@H](O)[C@H](OC)C3)[C@H](C)[C@@H](O)CC1=O)[C@H](C)C[C@@H]2OC` [FK506] as the molecule, how does the “time for which S421 phosphorylation remained sustained” value [8] read?
A: Its value is “at least 6 hours”.
